pEC50, pIC50: −log10 of the molar value. Activity calls are given as the source filed them. The rule behind the calls is not given here.
Key:
[1] = system: DU-145; assay: Cytotoxicity against human DU145 cells; format: functional, cell-based
[2] = system: KB; assay: Cytotoxicity against human KB cells assessed as growth inhibition at 10 ug/ml after 24 hrs by MTT assay; format: functional; conditions: read-out: GI
[3] = system: NCI-H460; assay: Cytotoxicity against human NCI-H460 cells assessed as growth inhibition at 0.1 ug/ml after 24 hrs by MTT assay; format: functional; conditions: NCI-H460, 24 h, read-out: GI
[4] = system: NCI-H460; assay: Cytotoxicity against human NCI-H460 cells assessed as growth inhibition at 10 ug/ml after 24 hrs by MTT assay; format: functional; conditions: NCI-H460, 24 h, read-out: GI
[5] = system: Bel-7402; assay: Cytotoxicity against human Bel7402 cells assessed as growth inhibition at 100 ug/ml after 24 hrs by MTT assay; format: functional; conditions: Bel-7402, 24 h, read-out: GI
[6] = Cytotoxicity against human HO8910 cells assessed as growth inhibition at 10 ug/ml after 24 hrs by MTT assay; format: functional; conditions: HO-8910, 24 h, read-out: GI
[7] = system: Bel-7402; assay: Cytotoxicity against human Bel7402 cells assessed as growth inhibition at 10 ug/ml after 24 hrs by MTT assay; format: functional; conditions: Bel-7402, 24 h, read-out: GI
[8] = system: PC-3; assay: Cytotoxicity against human PC3 cells assessed as growth inhibition at 100 ug/ml after 24 hrs by MTT assay; format: functional; conditions: PC-3, 24 h, read-out: GI
[9] = system: Bel-7402; assay: Cytotoxicity against human Bel7402 cells assessed as growth inhibition at 1 ug/ml after 24 hrs by MTT assay; format: functional; conditions: Bel-7402, 24 h, read-out: GI
[10] = system: KB; assay: Cytotoxicity against human KB cells assessed as growth inhibition at 100 ug/ml after 24 hrs by MTT assay; format: functional; conditions: read-out: GI
[11] = Cytotoxicity against human HO8910 cells assessed as growth inhibition at 100 ug/ml after 24 hrs by MTT assay; format: functional; conditions: HO-8910, 24 h, read-out: GI
[12] = system: NCI-H460; assay: Cytotoxicity against human NCI-H460 cells assessed as growth inhibition at 100 ug/ml after 24 hrs by MTT assay; format: functional; conditions: NCI-H460, 24 h, read-out: GI
[13] = system: PC-3; assay: Cytotoxicity against human PC3 cells assessed as growth inhibition at 1 ug/ml after 24 hrs by MTT assay; format: functional; conditions: for inhibition of growth at 1 µg/mL: PC-3, 24 h, read-out: GI
[14] = system: NCI-H460; assay: Cytotoxicity against human NCI-H460 cells assessed as growth inhibition at 1 ug/ml after 24 hrs by MTT assay; format: functional; conditions: NCI-H460, 24 h, read-out: GI
[15] = system: KB; assay: Cytotoxicity against human KB cells assessed as growth inhibition at 1 ug/ml after 24 hrs by MTT assay; format: functional; conditions: read-out: GI
[16] = system: KB; assay: Cytotoxicity against human KB cells assessed as growth inhibition at 0.1 ug/ml after 24 hrs by MTT assay; format: functional; conditions: read-out: GI
[17] = system: PC-3; assay: Cytotoxicity against human PC3 cells assessed as growth inhibition at 0.1 ug/ml after 24 hrs by MTT assay; format: functional; conditions: for inhibition of growth at 0.1 µg/mL: PC-3, 24 h, read-out: GI
[18] = system: PC-3; assay: Cytotoxicity against human PC3 cells assessed as growth inhibition at 10 ug/ml after 24 hrs by MTT assay; format: functional; conditions: for inhibition of growth at 10 µg/mL: PC-3, 24 h, read-out: GI
[19] = Cytotoxicity against human HO8910 cells assessed as growth inhibition at 1 ug/ml after 24 hrs by MTT assay; format: functional; conditions: HO-8910, 24 h, read-out: GI
[20] = Cytotoxicity against human HO8910 cells assessed as growth inhibition at 0.1 ug/ml after 24 hrs by MTT assay; format: functional; conditions: HO-8910, 24 h, read-out: GI
[21] = system: Bel-7402; assay: Cytotoxicity against human Bel7402 cells assessed as growth inhibition at 0.1 ug/ml after 24 hrs by MTT assay; format: functional; conditions: Bel-7402, 24 h, read-out: GI
[22] = system: HT-29; assay: Induction of apoptosis in human HT-29 cells; format: functional, cell-based

Row | Compound | inhibition of growth at 10 µg/mL [2] [%] | inhibition of growth at 0.1 µg/mL [3] [%] | inhibition of growth at 10 µg/mL [4] [%] | inhibition of growth at 100 µg/mL [5] [%] | inhibition of growth at 10 µg/mL [6] [%] | inhibition of growth at 10 µg/mL [7] [%] | inhibition of growth at 100 µg/mL [8] [%] | inhibition of growth at 1 µg/mL [9] [%] | inhibition of growth at 100 µg/mL [10] [%] | inhibition of growth at 100 µg/mL [11] [%] | inhibition of growth at 100 µg/mL [12] [%] | inhibition of growth at 1 µg/mL [13] [%] | inhibition of growth at 1 µg/mL [14] [%] | inhibition of growth at 1 µg/mL [15] [%] | inhibition of growth at 0.1 µg/mL [16] [%] | inhibition of growth at 0.1 µg/mL [17] [%] | inhibition of growth at 10 µg/mL [18] [%] | inhibition of growth at 1 µg/mL [19] [%] | inhibition of growth at 0.1 µg/mL [20] [%] | inhibition of growth at 0.1 µg/mL [21] [%] | further results
1 | CS/C=C\C(=O)SCCC(CCCCC(=O)OCCN(C)C)SC(=O)/C=C\SC (stereo not given) | – | – | – | – | – | – | – | – | – | – | – | – | – | – | – | – | – | – | – | – | pIC50 [1]: 4.30
2 | O=C(CCCCC(S)CCS)Nc1ccc(OC(F)(F)F)cc1 (stereo not given) | 15 | 17.2 | 29.2 | 49.7 | 6.11 | 14.2 | 75.5 | 7.32 | 73.3 | 66.8 | 65.1 | 12.6 | 19.1 | 6 | 7.27 | 14.9 | 42.5 | 0.56 | – | – | –
3 | O=C(CCCC[C@H]1CCSS1)Nc1ccc([N+](=O)[O-])c(C(F)(F)F)c1 | – | – | – | 94 | – | – | 79.8 | – | 95.8 | 92.3 | 92.2 | – | – | – | – | – | – | – | 1.06 | – | growth inhibition (GI) [13]: inactive; growth inhibition (GI) [17]: inactive; growth inhibition (GI) [18]: inactive
4 | O=C(CCCCC1CCSS1)Nc1cccc(C(F)(F)F)c1 (stereo not given) | 10.9 | – | 6.77 | 61.9 | 5.99 | 4.43 | 88.7 | – | 80 | 74.8 | 68.8 | 8.44 | 4.39 | 9.5 | 0.33 | 6.27 | 38.5 | 4.76 | 5 | – | –
5 | O=C(CCCCC1CCSS1)Nc1ccc(OC(F)(F)F)cc1 (stereo not given) | 8.49 | 7.05 | 20.3 | 78.4 | 8.57 | 1.24 | 88.5 | 0.29 | 90.1 | 84.5 | 83 | 10.8 | 12.2 | 1.54 | 1.97 | 6.69 | 38.2 | 10 | 5.53 | – | –
6 | O=C(CCCCC1CCSS1)Nc1ccc(F)cc1 (stereo not given) | 4.44 | 15.6 | 18.8 | 74.5 | 3.89 | 1.92 | 80.8 | 1.79 | 85.4 | 78.1 | 64.5 | 14.5 | 11.4 | 4.05 | 11.3 | 15.6 | 13.8 | 5.82 | 6.59 | – | –
7 | O=C(CCCCC(S)CCS)Nc1ccc(Cl)cn1 (stereo not given) | 21.6 | – | 27.4 | 50.7 | 21.9 | 17.8 | 32.4 | 2.34 | 76.5 | 71.2 | 55.8 | 0.89 | – | – | – | – | 10.8 | – | 2.65 | – | growth inhibition (GI) [17]: inactive
8 | COC(=O)CCCCC(CCSC(=O)CCCSC)SC(=O)CCCSC (stereo not given) | – | – | – | – | – | – | – | – | – | – | – | – | – | – | – | – | – | – | – | – | pIC50 [1]: 3.40
9 | O=C(CCCCC1CCSS1)Nc1ccc(Cl)cc1 (stereo not given) | 21.7 | 13 | 18.3 | 76.4 | 0.75 | 7.01 | 41.2 | 0.64 | 83.1 | 74.8 | 68.7 | 13.7 | 10.9 | 18.6 | 16.4 | 18.9 | 14.7 | – | – | 3.37 | –
10 | O=C(CCCCC1CCSS1)Nc1ccc([N+](=O)[O-])cc1 (stereo not given) | 14.4 | 11.9 | 22.7 | 52.6 | 0.61 | 4.83 | 79.6 | – | 71.3 | 64.5 | 56.7 | 19.9 | 7.45 | – | 0.22 | 13.9 | 6.67 | 0.33 | – | – | –
11 | Cc1cccc(NC(=O)CCCCC2CCSS2)c1 (stereo not given) | 4.13 | 7.97 | 4.15 | 49.9 | – | 9.01 | 75.1 | 10.3 | 68 | 62.7 | 52.9 | 9.98 | 7.82 | 5.2 | 4.29 | 2.13 | 9.57 | 4.54 | 3.68 | 9.88 | –
12 | O=C(CCCCC(S)CCS)Nc1ccc([N+](=O)[O-])c(C(F)(F)F)c1 (stereo not given) | 4.04 | 3.2 | 0.97 | 91.7 | – | – | 79.9 | 0.68 | 95.5 | 92.7 | 95.8 | 1.08 | 6.29 | 10.2 | – | 8.06 | 45.5 | 1.17 | 1.95 | 6.54 | –
13 | O=C(O)CCCC[C@@H](S)CCS [DIHYDROLIPOIC ACID] | 3.38 | 9.25 | 5.02 | 0.59 | – | 5.59 | – | 6.98 | 16.3 | 1.17 | 7.84 | – | 12.2 | 8.79 | 12 | – | – | 3.93 | – | 10.4 | pEC50 [22]: 3.60
14 | CS/C=C/C(=O)SCCC(CCCCC(=O)OCCN(C)C)SC(=O)/C=C/SC (stereo not given) | – | – | – | – | – | – | – | – | – | – | – | – | – | – | – | – | – | – | – | – | pIC50 [1]: 4.35
15 | O=C(CCCCC1CCSS1)Nc1ccccc1 (stereo not given) | 10.2 | 9.48 | 0.75 | 60.6 | 4.71 | 2.27 | 59.2 | 3.28 | 65.3 | 57.8 | 47.6 | 13.6 | 5.86 | 6.06 | 10.9 | 5.5 | 13 | 10.9 | 11.2 | 3.22 | –
16 | CSCCCC(=O)SCCC(CCCCC(=O)OCCN(C)C)SC(=O)CCCSC (stereo not given) | – | – | – | – | – | – | – | – | – | – | – | – | – | – | – | – | – | – | – | – | pIC50 [1]: 3.62
